From paper PMC9428149, “Tackling recalcitrant Pseudomonas aeruginosa infections in critical illness via anti-virulence monotherapy” (Nature Communications, 2022)
≈ marks a conversion by molar mass, not a printed value. Like-named read-outs stand apart in the source and are kept apart here.

Legend:
[1] = tested on: pyocyanin production in PA14; test: Pyocyanin production assay; conditions: Pseudomonas aeruginosa; for activity at 50 µM: PA14, 18 h, read-out: % Production Pyocyanin; for IC50: PA14, read-out: IC50 pyocyanin production
[2] = tested on: mvfR mutant constitutively expressing the pqsABCDE operon; format: cell-based; conditions: Pseudomonas aeruginosa, control about 100, single replicates (Figure 4a)
PA14 AT/P cells = test: AT/P cells formation assay in PA14; format: cell-based, Pseudomonas aeruginosa; conditions: Pseudomonas aeruginosa, PA14, 24 h, read-out: inhibition of AT/P cells formation
[3] = tested on: MvfR-regulated small molecules in PA14; test: Production of HAQs, 2-AA, DHQ and AA in PA14 cultures (LC-MS); conditions: Pseudomonas aeruginosa
Description: The HAQs HHQ, PQS, HQNO, and non-HAQs: 2-AA and DHQ produced by PA14 cells were quantified in the presence of NAMs. The overnight grown starter culture was diluted 1:100 in 5 mL LB media in a glass tube and was allowed to grow in the presence (50 µM) or absence of compound at 37 °C and 200 rpm in an incubator shaker until OD600 was 3. Bacterial cultures were subsequently mixed 1:1 (400 μL: 400 μL) with 100% methanol containing 20 ppm (20 μg mL^−1) of tetradeutero-PQS (PQS-D4) and 10 ppm of tetradeutero-HHQ (HHQ-D4) in a 1.5 mL Eppendorf tube. The mixture was vortexed for 5 seconds and spun down for 5 minutes at 12,000 x g. A 700 μL aliquot of the supernatant was removed and stored in glass vials at −20 °C until further liquid chromatography-mass spectrophotometry (LC/MS) analysis as previously described in Lepine et al., 2003[66]. LC/MC analysis was performed using a Micromass Quattro II triple quadrupole mass spectrometer (Micromass Canada, Pointe-Claire, Canada) in positive electrospray ionization mode, interfaced to an HP1100 HPLC equipped with a 4.5 × 150 mm reverse-phase C8 column.
GraphPad Prism 9.2.0 software was used to plot the IC50 curve against the percent inhibition of these small molecules’ production at each concentration.

[4] = tested on: pqsA promoter (PA14 PpqsA-GFPASV); test: pqsA-GFP reporter expression; format: cell-based, Pseudomonas aeruginosa; conditions: Pseudomonas aeruginosa; for activity at 50 µM: PA14, read-out: % Production pqsA-GFP; for IC50: PA14, read-out: IC50 pqsA-GFP expression, PA14, 13 concentrations
[5] = Solubility in iPBS pH 7.4 by HPLC; format: physicochemical; conditions: isotonic phosphate buffer (iPBS), aqueous with cosolvent or surfactant or cyclodextrin, kinetic from dmso stock; iPBS pH 7.4, HPLC; read-out: Solubility (M) in PBS
Outline: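 Compounds from 10 mM DMSO stock shaken 4 h at room temperature in iPBS pH 7.4 (10 mM PBS, 2.7 mM KCl, 140 mM NaCl, 0.05% Tween), then filtered. Concentration measured by HPLC-UV against a known standard solution; solubility given as ratio of compound in test solution to standard.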

ΔmvfR biofilm = test: Biofilm formation of ΔmvfR mutant (off-target); conditions: Pseudomonas aeruginosa, PA14, 24 h, read-out: Biofilm formation, ΔmvfR + compound; PA14 about 100; single replicates (Figure 4c)
Description: Biofilm was grown in the 96-well microtiter plate at 37 °C for 24 h containing M63 minimal media in the presence of 10 µM of the compounds or vehicle. The biofilm grown with the vehicle was considered as a control. The percentage value was calculated in comparison to the PA14 control. a–c Data represent at least n = 3, each dot on the graph represents one biological replicate. The number of biological replicates for each compound and strain is depicted in the graph. The error bars denote ±SEM.
The overnight grown starter culture was diluted 1:1000 in 5 mL LB media in a glass tube and was incubated at 37 °C and 200 rpm in an incubator shaker until the culture reached an OD600nm 3.0. The culture was then diluted at 1:100 in M63 minimal media supplemented with 0.2% glucose, 0.5% Casamino Acids, and 1 mM MgSO4. Initiation of the Biofilm formation was performed in the 96 well plates; 200 µL of diluted culture was added in the wells with (10 µM) or without compounds. The cultures were allowed to grow at 37 °C in static conditions for 24 hours. Thereafter, planktonic culture was removed from the wells, and wells were washed three times with distilled water (DW). Biofilm was stained with 0.1% crystal violet and incubated for 15 min at room temperature (RT). Access dye was removed from the wells and washed off three times with DW, and 200 µL ethanol: acetone (80:20) was added to the wells. The plate was incubated for 30 min at RT, and the OD was measured by spectrophotometry at 570 nm in the infinite F200 plate reader using the Magellan software (Tecan, Switzerland). Percent biofilm formation was calculated in comparison to PA14 culture that was grown in the absence of compounds.

[6] = tested on: 16 MDR P. aeruginosa clinical isolates; test: Pyocyanin production in MDR clinical isolates; conditions: Pseudomonas aeruginosa, 18 h, Control about 100, replicates
[7] = tested on: PA14 isogenic mutant ΔmvfR AT/P cells; test: AT/P cell formation in ΔmvfR mutant (off-target); conditions: Pseudomonas aeruginosa, PA14, 24 h, read-out: AT/P cell formation, ΔmvfR + compound; PA14 about 100; single replicates (Figure 4b)
Description: Cells were grown in the presence of 10 μg mL^−1 meropenem, with or without 10 µM of the compounds for 24 h. Values were normalized to cells grown for 4 h in the absence of antibiotics and compounds. The ∆mvfR cells grown with antibiotics and vehicles were considered control, and the percentage values were calculated compared to control. c Biofilm formation of mutant ∆mvfR cells with or without compound. […] The number of biological replicates for each compound and strain is depicted in the graph. The error bars denote ±SEM.
The AT/P cell formation assay was performed according to the method previously described in Starkey et al., 2014 (persister cell assay). The over-day culture was incubated at 37 °C with shaking at 200 rpm until the culture OD600nm was 3.0. The culture was then diluted at 1:100 and grown in the same conditions for 4 h. After 4 h, 200 µL were collected, and serial dilutions were plated on LB agar plates for CFU quantification (as normalizers). The remainder of the culture was treated with meropenem to a final concentration of 100 × MIC (Minimum Inhibitory Concentration; 10 mg L^−1) and compounds at a final concentration of 10 µM. After 24 h, culture aliquots were 10-fold serially diluted in LB broth and plated on LB agar for CFU quantification. The AT/P fraction was determined as the normalizers (pre-antibiotic) ratio divided by the AT/P fraction (24 h post-antibiotic)[22].

MvfR protein (MvfRC87) = target: T1, MvfR protein (MvfRC87) (Pseudomonas aeruginosa, UniProt Q9I4X0); format: binding; conditions: SPR
T1 construct: The MvfRC87 protein purified as in Xiao et. al., 2006; made in house
Outline: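 MvfRC87 amine-coupled to a CM7 chip (3000–5000 RU) and binding measured by SPR. Double-reference-corrected responses 5 s before end of association plotted against concentration, for inhibitor alone and with native ligand PQS, compared with responses calculated for different binding sites.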

[8] = read-out: 2-AA, ΔmvfR-pqsABCD strain
[9] = read-out: DHQ, ΔmvfR-pqsABCD strain
[10] = read-out: HHQ, ΔmvfR-pqsABCD strain
[11] = read-out: HQNO, ΔmvfR-pqsABCD strain
[12] = read-out: PQS, ΔmvfR-pqsABCD strain
[13] = PA14, read-out: % Production 2-AA
[14] = PA14, read-out: % Production AA
[15] = PA14, read-out: % Production DHQ
[16] = PA14, read-out: % Production HHQ
[17] = PA14, read-out: % Production HQNO
[18] = PA14, read-out: % Production PQS
[19] = PA14, read-out: HHQ production inhibition
[20] = PA14, read-out: HQNO production inhibition
[21] = PA14, read-out: PQS production inhibition
[22] = PA14, read-out: inhibition of 2-AA production
[23] = PA14, read-out: inhibition of DHQ production
[24] = read-out: Pyocyanin production relative to Control, clinical isolate LGR-4325
[25] = read-out: Pyocyanin production relative to Control, clinical isolate LGR-4326
[26] = read-out: Pyocyanin production relative to Control, clinical isolate LGR-4327
[27] = read-out: Pyocyanin production relative to Control, clinical isolate LGR-4328
[28] = read-out: Pyocyanin production relative to Control, clinical isolate LGR-4330
[29] = read-out: Pyocyanin production relative to Control, clinical isolate LGR-4331 (first section, r117)
[30] = read-out: Pyocyanin production relative to Control, clinical isolate LGR-4331 (second section, r140)
[31] = read-out: Pyocyanin production relative to Control, clinical isolate LGR-4333
[32] = read-out: Pyocyanin production relative to Control, clinical isolate LGR-4343
[33] = read-out: Pyocyanin production relative to Control, clinical isolate LGR-4344
[34] = read-out: Pyocyanin production relative to Control, clinical isolate LGR-4348
[35] = read-out: Pyocyanin production relative to Control, clinical isolate LGR-4356
[36] = read-out: Pyocyanin production relative to Control, clinical isolate LGR-4362
[37] = read-out: Pyocyanin production relative to Control, clinical isolate LGR-4363
[38] = read-out: Pyocyanin production relative to Control, clinical isolate LGR-4364 (first section, r326)
[39] = read-out: Pyocyanin production relative to Control, clinical isolate LGR-4364 (second section, r349)

T1 sequence (Q9I4X0 87-332): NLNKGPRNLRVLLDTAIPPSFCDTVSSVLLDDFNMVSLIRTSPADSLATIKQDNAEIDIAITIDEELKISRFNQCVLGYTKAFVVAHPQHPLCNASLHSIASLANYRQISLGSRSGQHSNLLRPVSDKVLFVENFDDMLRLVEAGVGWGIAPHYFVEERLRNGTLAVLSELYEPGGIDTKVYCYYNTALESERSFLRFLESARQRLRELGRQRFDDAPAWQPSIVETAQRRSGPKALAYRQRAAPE

N#Cc1ccc(NC(=O)CC(=O)Nc2ccc(C#N)nc2)cc1 [D77]
activity at 50 µM [1]: 7% | IC50 [1]: 4.07 µM | activity at 50 µM [2, 8]: 104% | activity at 50 µM [2, 9]: 94.5% | activity at 50 µM [2, 10]: 98% | activity at 50 µM [2, 11]: 102% | activity at 50 µM [2, 12]: 90.2% | inhibition at 10 µM (PA14 AT/P cells): ≥ 51% | activity at 50 µM [3, 13]: 19% | activity at 50 µM [3, 14]: 777% | activity at 50 µM [3, 15]: 20% | activity at 50 µM [3, 16]: 10% | activity at 50 µM [3, 17]: 64% | activity at 50 µM [3, 18]: 24% | inhibition at 50 µM [3, 19]: 89 to 99% | inhibition at 50 µM [3, 20]: 40 to 92% | inhibition at 50 µM [3, 21]: 76 to 97% | inhibition at 50 µM [3, 22]: 82 to 95% | inhibition at 50 µM [3, 23]: 82 to 96% | activity at 50 µM [4]: 1% | IC50 [4]: 6.4 µM | solubility at 4 h [5]: 3.9e-05 M (≈ 11.9 µg/mL) | activity at 10 µM (ΔmvfR biofilm): 23.6% | activity at 10 µM [6, 24]: 15% | activity at 10 µM [6, 25]: 12.1% | activity at 10 µM [6, 26]: 20.6% | activity at 10 µM [6, 27]: 25.6% | activity at 10 µM [6, 28]: 35.1% | activity at 10 µM [6, 29]: 18.8% | activity at 10 µM [6, 30]: 8.31% | activity at 10 µM [6, 31]: 11.8% | activity at 10 µM [6, 32]: 22.6% | activity at 10 µM [6, 33]: 26.1% | activity at 10 µM [6, 34]: 19% | activity at 10 µM [6, 35]: 14.3% | activity at 10 µM [6, 36]: 39.2% | activity at 10 µM [6, 37]: 18.5% | activity at 10 µM [6, 38]: 18.9% | activity at 10 µM [6, 39]: 16.9% | activity at 10 µM [7]: 29.3% | Response Unit (RU) (MvfR protein (MvfRC87); Concentration 1.00E-05 M): 30.9 RU | Response Unit (RU) (MvfR protein (MvfRC87); Concentration 1.00E-06 M): 19.8 RU | Response Unit (RU) (MvfR protein (MvfRC87); Concentration 1.00E-07 M): 5.9 RU | Response Unit (RU) (MvfR protein (MvfRC87); Concentration 1.00E-08 M): 0.7 RU | Response Unit (RU) (MvfR protein (MvfRC87); Concentration 3.16E-06 M): 26.6 RU | Response Unit (RU) (MvfR protein (MvfRC87); Concentration 3.16E-07 M): 11.8 RU | Response Unit (RU) (MvfR protein (MvfRC87); Concentration 3.16E-08 M): 2.2 RU

CC(C(=O)Nc1ccc(C#N)cc1)C(=O)Nc1ccc(C#N)cc1 [D80]
activity at 50 µM [1]: 7% | IC50 [1]: 3.6 µM | activity at 50 µM [2, 8]: 101% | activity at 50 µM [2, 9]: 101% | activity at 50 µM [2, 10]: 96.1% | activity at 50 µM [2, 11]: 86.4% | activity at 50 µM [2, 12]: 99.4% | inhibition at 10 µM (PA14 AT/P cells): ≥ 51% | activity at 50 µM [3, 13]: 16% | activity at 50 µM [3, 14]: 832% | activity at 50 µM [3, 15]: 20% | activity at 50 µM [3, 16]: 8% | activity at 50 µM [3, 17]: 64% | activity at 50 µM [3, 18]: 20% | inhibition at 50 µM [3, 19]: 89 to 99% | inhibition at 50 µM [3, 20]: 40 to 92% | inhibition at 50 µM [3, 21]: 76 to 97% | inhibition at 50 µM [3, 22]: 82 to 95% | inhibition at 50 µM [3, 23]: 82 to 96% | activity at 50 µM [4]: 10% | IC50 [4]: 10.6 µM | solubility at 4 h [5]: 2.9e-05 M (≈ 9.23 µg/mL) | activity at 10 µM (ΔmvfR biofilm): 42.3% | activity at 10 µM [6, 24]: 40% | activity at 10 µM [6, 25]: 39.5% | activity at 10 µM [6, 26]: 32.3% | activity at 10 µM [6, 27]: 30.6% | activity at 10 µM [6, 28]: 15.3% | activity at 10 µM [6, 29]: 41.5% | activity at 10 µM [6, 30]: 37.9% | activity at 10 µM [6, 31]: 65.7% | activity at 10 µM [6, 32]: 62% | activity at 10 µM [6, 33]: 31.8% | activity at 10 µM [6, 34]: 39.5% | activity at 10 µM [6, 35]: 32.3% | activity at 10 µM [6, 36]: 30.6% | activity at 10 µM [6, 37]: 15.3% | activity at 10 µM [6, 38]: 41.5% | activity at 10 µM [6, 39]: 37.9% | activity at 10 µM [7]: 36% | Response Unit (RU) (MvfR protein (MvfRC87); Concentration 1.00E-05 M): 35.4 RU | Response Unit (RU) (MvfR protein (MvfRC87); Concentration 1.00E-06 M): 22.9 RU | Response Unit (RU) (MvfR protein (MvfRC87); Concentration 1.00E-07 M): 7 RU | Response Unit (RU) (MvfR protein (MvfRC87); Concentration 1.00E-08 M): 0.6 RU | Response Unit (RU) (MvfR protein (MvfRC87); Concentration 3.16E-06 M): 30.6 RU | Response Unit (RU) (MvfR protein (MvfRC87); Concentration 3.16E-07 M): 13.9 RU | Response Unit (RU) (MvfR protein (MvfRC87); Concentration 3.16E-08 M): 2.6 RU
